Results on ten compounds are retold here after ChEMBL document CHEMBL1201862, “PubChem BioAssay data set” (2004).

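Exposure lasted 48 hours, with cells grown in 96-well plates and compounds tested at five concentrations. GI50 = concentration required for 50% inhibition of growth.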 The source made the active and inactive calls. Rule as the data show it: active = GI50 up to about 1.1 µM and inactive = higher.

What all share (assay): inhibition of tumour cell growth, NCI panel, 48 h
Assay [1] relates to ACHN.
The test system of assay [2] is BT-549.
Assay [3] deals with COLO 205.
Assay [4] concerns HCT-15.
Assay [5] has as its system HOP-62.
Assay [6] has as its system IGROV-1.
Assay [7] has as its system MDA-MB-231.
Assay [8] has as its system MDA-N.
Assay [9] has as its system NCI-H226.
In assay [10] the test system is NCI-H522.
The test system of assay [11] is OVCAR-3.
For assay [12], the system named is OVCAR-8.
Assay [13] relates to RXF 393.
Assay [14] concerns SF-539.
For assay [15], the system named is SK-MEL-28.
Assay [16] has as its system SK-MEL-5.
For assay [17], the system named is SK-OV-3.
The test system of assay [18] is SNB-75.
Assay [19] has as its system U-251.
Assay [20] has as its system UACC-257.

Consider `COC(=O)C1=C(O)C(C(=O)OC)[C@]2(O)[C@@H](C(=O)OC)[C@H]1[C@H](C)[C@@H](c1ccccc1)[C@@H]2C(=O)OC` (stereo partly specified), for which the GI50 was 91.8 µM (inactive) in assay [1]; 38.8 µM (inactive) in assay [2]; 77.3 µM (inactive) in assay [3]; 57.8 µM in assay [4]; > 100 µM (inactive) in assay [5]; 16.8 µM (inactive) in assay [6]. In addition, the GI50 is > 100 µM (inactive) in assay [7]; 29.2 µM (inactive) in assay [8]; 78.9 µM (inactive) in [9]; 18.9 µM (inactive) in assay [10]; 54 µM (inactive) in assay [11]; 54.2 µM (inactive) in assay [12]. The GI50 in assay [13] was > 100 µM (inactive); in assay [14] it was > 100 µM (inactive); in assay [15] it was > 100 µM (inactive); in assay [16] it was 36.2 µM (inactive); in assay [17] it was > 100 µM (inactive); in assay [18], > 100 µM (inactive). For the same compound, the GI50 in assay [19] and in assay [20] was > 100 µM (inactive) each time.

Regarding `COc1cc(C2c3cc4c(cc3OC(O)C2C)OCO4)cc(OC)c1O` (stereo unspecified), the GI50 in [1] is 12.4 µM (inactive); in assay [2], 7.26 µM (inactive); in [3] it was 18.2 µM (inactive); in [4], 5.43 µM; in [5] it was 10.7 µM (inactive); in assay [6], 8.55 µM (inactive). Also, the GI50 in [7] was 10.1 µM (inactive); in assay [8] it was 1.84 µM (inactive); in [9] it was 17 µM (inactive); in assay [10], 2.12 µM (inactive); in [11], 4.24 µM (inactive); in [12], 16.6 µM (inactive). Further, the GI50 in assay [13] is 7.35 µM (inactive); in [14] it was 6.28 µM (inactive); in [15], 28.7 µM (inactive); in assay [16], 4.66 µM (inactive); in [17], 6.59 µM (inactive); in assay [18], 3.29 µM (inactive). In addition, the GI50 is 7.16 µM (inactive) in assay [19] and 48.5 µM (inactive) in assay [20].

Turning to `CCCCCCCCCCCNC=O`, the GI50 was 40.5 µM (inactive) in assay [1]; 21.8 µM (inactive) in [2]; 49.3 µM (inactive) in [3]; 27.4 µM in [4]; > 100 µM (inactive) in assay [5]; 84.7 µM (inactive) in [6]. The GI50 was 48.6 µM (inactive) in [7]; 56.6 µM (inactive) in assay [8]; 94.6 µM (inactive) in assay [9]; 24.5 µM (inactive) in assay [10]; 35.4 µM (inactive) in [11]; 58.1 µM (inactive) in assay [12]. Besides, the GI50 was 48.8 µM (inactive) in assay [13]; > 100 µM (inactive) in [14]; 68.5 µM (inactive) in [15]; 36.9 µM (inactive) in [16]; 75.5 µM (inactive) in assay [17]; 50.8 µM (inactive) in assay [18]. The results for the GI50 in assay [19] and in assay [20] were 25.9 µM (inactive) and 32.4 µM (inactive), respectively.

On to `O=C1NC2(CCCCC2)N=C2C(Cl)CCCC12Cl` (stereo unspecified), for which the GI50 is > 100 µM (inactive) in assay [1]; > 100 µM (inactive) in assay [2]; > 100 µM (inactive) in assay [3]; > 100 µM in [4]; > 100 µM (inactive) in assay [5]; > 100 µM (inactive) in assay [6]. Moreover, the GI50 in assay [7], in assay [8], in assay [9], in assay [10], in [11] and in assay [12] was > 100 µM (inactive) each time. For the same compound, the GI50 in [13], in [14], in [15], in [16], in assay [17] and in assay [18] was > 100 µM (inactive) throughout. In addition, the GI50 in assay [19] is > 100 µM (inactive).

Take `O=[N+]([O-])c1cc2oc(COc3ccccc3)nc2cc1Cl`: the GI50 was 48.3 µM (inactive) in assay [1]; 20.8 µM (inactive) in [2]; 20.6 µM (inactive) in assay [3]; 18.7 µM in [4]; 20.4 µM (inactive) in [5]; 19.5 µM (inactive) in assay [6]. Moreover, the GI50 in assay [7] is 30.5 µM (inactive); in assay [8], 25.9 µM (inactive); in assay [9], 17 µM (inactive); in [10] it was 18 µM (inactive); in assay [11], 17.9 µM (inactive); in [12], 35.2 µM (inactive). In addition, the GI50 was 22.1 µM (inactive) in assay [13]; 19.1 µM (inactive) in [14]; 32.6 µM (inactive) in assay [15]; 12.7 µM (inactive) in assay [16]; 24.9 µM (inactive) in [17]; 18.7 µM (inactive) in [18]. Further, the GI50 in assay [19] is 22.8 µM (inactive); in assay [20], 22.1 µM (inactive).

As to `CC12C=CC(C)(C3C(=O)C4C(C(=O)C31)C1(C)C=CC4(C)[S+]1[O-])[S+]2[O-]` (stereo unspecified), the GI50 in [1] is > 100 µM (inactive); in assay [2], > 100 µM (inactive); in assay [3], 34.9 µM (inactive); in [4] it was 87.3 µM; in assay [5], > 100 µM (inactive); in assay [6], 83.9 µM (inactive). The GI50 in assay [7] was > 100 µM (inactive); in assay [8], > 100 µM (inactive); in [9], > 100 µM (inactive); in [10] it was 38.4 µM (inactive); in assay [11], > 100 µM (inactive); in assay [12], 56 µM (inactive). Besides, the GI50 was > 100 µM (inactive) in assay [13]; 25.4 µM (inactive) in assay [14]; 21.9 µM (inactive) in assay [16]; > 100 µM (inactive) in [17]; 57.5 µM (inactive) in [18]; 71.9 µM (inactive) in [20].

For the compound `Cc1ccc(NC(=O)C(=O)C2C(=O)C3=C(CC2(C)C)NC2C=CC=CC2S3)c(C)c1` (stereo unspecified), the GI50 in assay [1] was > 100 µM (inactive); in [2] it was > 100 µM (inactive); in [3], > 100 µM (inactive); in [4], > 100 µM; in [6] it was 49.3 µM (inactive); in assay [7] it was 53.5 µM (inactive). Besides, the GI50 in assay [8] is > 100 µM (inactive); in assay [9] it was 56.2 µM (inactive); in [10] it was > 100 µM (inactive); in assay [12] it was 37.5 µM (inactive); in assay [13], > 100 µM (inactive); in [14], 43.8 µM (inactive). Besides, the GI50 in assay [15] was > 100 µM (inactive); in [16], 85.1 µM (inactive); in assay [17], > 100 µM (inactive); in assay [18] it was 30.4 µM (inactive); in assay [19] it was 59 µM (inactive); in assay [20], > 100 µM (inactive).

As for `Cc1ccc(S(=O)(=O)c2c(O)c3ccc(O)c(C)c3oc2=O)cc1`, the GI50 was > 100 µM (inactive) in assay [1]; > 100 µM (inactive) in assay [2]; > 100 µM (inactive) in assay [3]; > 100 µM in assay [4]; > 100 µM (inactive) in [6]; > 100 µM (inactive) in assay [7]. The GI50 in assay [8], in [9], in assay [10], in [11], in [12] and in assay [13] was > 100 µM (inactive) throughout. Also, the GI50 in assay [14], in assay [15], in assay [16], in [17], in assay [18] and in assay [19] was > 100 µM (inactive) throughout. The GI50 in [20] is > 100 µM (inactive).

In the case of `COC(=O)C1=NN2c3ccccc3CN([C@@H](C)c3ccccc3)C(=O)[C@@H]2[C@H]1c1ccccc1`, the GI50 was > 100 µM (inactive) in [1]; > 100 µM (inactive) in [2]; > 100 µM (inactive) in [3]; > 100 µM in [4]; > 100 µM (inactive) in assay [5]; > 100 µM (inactive) in [7]. The GI50 in assay [8] is > 100 µM (inactive); in [9], > 100 µM (inactive); in assay [10], 43.4 µM (inactive); in assay [11], > 100 µM (inactive); in [12] it was > 100 µM (inactive); in assay [13], > 100 µM (inactive). For the same compound, the GI50 in [14] is > 100 µM (inactive); in [15] it was > 100 µM (inactive); in assay [16] it was > 100 µM (inactive); in assay [17] it was > 100 µM (inactive); in assay [18], 30.3 µM (inactive); in [19] it was > 100 µM (inactive). Further, the GI50 in [20] is > 100 µM (inactive).

In the case of `O=C(NCCCN(CCCCN(CCCNC(=O)C(F)(F)F)CCCc1ccccc1)CCCc1ccccc1)C(F)(F)F`, the GI50 in assay [1] was 2 µM (inactive); in [2], 2.68 µM (inactive); in assay [3] it was 1.56 µM (inactive); in assay [4], 1.44 µM; in assay [6] it was 1.83 µM (inactive); in [7], 1.63 µM (inactive). The GI50 is 1.65 µM (inactive) in [8]; 10.4 µM (inactive) in [9]; 1.78 µM (inactive) in [10]; 1.74 µM (inactive) in assay [12]; 1.3 µM (inactive) in [13]; 1.57 µM (inactive) in assay [14]. Besides, the GI50 in [15] is 1.64 µM (inactive); in assay [16] it was 1.69 µM (inactive); in [17], 2.49 µM (inactive); in assay [18], 1.12 µM (active); in [19], 1.6 µM (inactive); in [20] it was 1.71 µM (inactive).
